Results published in US20080025946A1, “INTERLEUKIN 21 AND TYROSINE KINASE INHIBITOR COMBINATION THERAPY” (priority 2006, published 2008).
Where two headings read alike, the source gives them in different places.

Key:
[1] = system: RenCa.2 mouse renal cell carcinoma model; settings: RenCa.2 model
RenCa.2 tumor = test: Concurrent mIL-21 and sub-maximal sorafenib: RenCa.2 tumor growth in mice; format: in vivo, mouse
Protocol: Tumor volume was monitored 3×/week for 3 weeks.
Ten-week old female BALB/c mice (Charles River Laboratories) were injected s.c. on the right flank with 0.1×10^6 RenCa.2 cells on Day 0. […] Tumor growth was monitored 3×/week for 3 weeks using caliper measurements. Tumor volume is calculated using the formula ½*(B)2*L (mm3).

RenCa.2 tumors = test: Concurrent mIL-21 and high dose sorafenib: survival of mice bearing RenCa.2 tumors; format: in vivo, mouse; settings: BALB/c mice, s.c. RenCa; from day 5: 50 μg mIL-21 i.p. 5/9/5 and/or 60 mg/kg sorafenib oral gavage 10 days; n=10/group
Protocol: Survival of mice receiving the treatments were monitored over 35 days.
Survival of mice were monitored over 35 days.
Ten-week old female BALB/c mice (Charles River Laboratories) were injected s.c. on the right flank with 0.1×10^6 RenCa cells on Day 0. […] Tumor growth was monitored 3×/week for 3 weeks using caliper measurements. Survival of mice were monitored over 35 days. Tumor bearing mice were terminated as per IACUC policies with regard to maximal tumor size (1200 mm^3) or weight loss of >=20% of initial body weight.

[2] = system: murine model of renal adenocarcinoma (RenCa); settings: cited from earlier work

| SMILES | doses at which maximally effective in mediating tumor clearance ([1]; sunitinib orally administered) | inhibition of tumor growth (in words) (RenCa.2 tumor; 25 μg mIL-21 and/or 2 mg/kg sorafenib, RenCa.2 model) | Tumor volume mm3 + SD(Day21) (RenCa.2 tumor; BALB/c mice, s.c. RenCa.2, from day 3: 25 μg mIL-21 i.p. 5 days and/or 2 mg/kg sorafenib oral gavage 10 days, Day 21, n=10/group) | % mice surviving at Day 35 (RenCa.2 tumors) [%] | inhibition of tumor growth ([2]; 7.5 mg/kg daily) [%] | inhibition of tumor growth ([2]; 60 mg/kg daily) [%] | doses at which partially effective in mediating tumor clearance [1] |
| --- | --- | --- | --- | --- | --- | --- | --- |
| CCN(CC)CCNC(=O)c1c(C)[nH]c(/C=C2\C(=O)Nc3ccc(F)cc32)c1C [sunitinib] | above 40 mg/kg | – | – | – | – | – | – |
| CNC(=O)c1cc(Oc2ccc(NC(=O)Nc3ccc(Cl)c(C(F)(F)F)c3)cc2)ccn1 [sorafenib] | – | partially effective | 790.3 + 398.8 mm3 | 50 | 30 | 84 | below 10 mg/kg |
